System: ADP-induced platelet aggregation
Assay: ADP-induced platelet aggregation following intravenous administration in rabbits
Assay type: in vivo, rabbit
Protocol: FIG. 1 is a graph showing the effect of the compound I and sodium nitroprusside on ADP-induced platelet aggregation following intravenous administration in rabbits (% compared to control).
Antiplatelet activity was assessed by the effect of the compound on platelet aggregation of rabbit blood plasma, induced by ADP (adenosine diphosphate) and arachidonic acid. Platelet aggregation was assessed by the change of optical density of plasma. Studies were performed using both intravenous administration, in comparison with sodium nitroprusside, and oral administration, in comparison with acetylsalicylic acid. Compound I was used in concentrations of 10^−3-10^−7 M (parenteral administration) and in 4-8 and 12 mg/kg doses (oral administration).
In order to make a final conclusion on the ability of the studied compound to inhibit platelet aggregation experiments were performed in conditions of living organism using intravenous and oral administration.
Compound I and sodium nitroprusside (a reference drug) have both inhibited the process of platelet aggregation. However, there were considerable quantitative and temporal differences in their effects. […] This was the only time point where we managed to observe its activity. After 1 hour the effect disappeared.

SMILES: CN1CC(CO)O/C1=C(C#N)/C=C1/Nc2ccccc2C1=O (stereo not drawn) [Compound I, 2-[2-Cyano-2-[5-(hydroxymethyl)-3-methyl-1,3-oxazolidin-2-ylidene]ethylidene]indolin-3-one]
- Inhibition of induced functional activity of platelets compared with sodium nitroprusside (intravenous administration to rabbits): as potent as that of sodium nitroprusside, but persists for a longer time
- Time at which inhibition of platelet aggregation stopped/disappeared (intravenous, rabbits): 3 h
- Time of maximal potency of inhibition of platelet aggregation (intravenous, rabbits): 60 min

Source: patent publication US9453008B2, “Antithrombotic and antiatherosclerotic agent and method for producing same (variants)” (PROTON OOO, priority 2011, dated 2016)
